Each structure is given as a SMILES string.

For one assay, the target named is T1, PIM1 (Homo sapiens, UniProt P11309).
T1 construct: made in house; host or cells: bacteria
Description: Kinase inhibition assay (ADP-Glo). The assay is classed as biochemical. The following applies: 10 µM ATP. The method, then: HsPIM1 (human proto-oncogene, recombinant, expressed in bacteria) was assayed in buffer B with 0.8 µg/µL of histone H1 (Sigma #H5505) as substrate.
A general note: ADP-Glo first removes unused ATP, then detects ADP through luciferase.

The target in a further assay is T2, AURKB (Homo sapiens, UniProt Q96GD4).
T2 construct: purchased SignalChem A31-10G; host or cells: Sf9 insect cells (baculovirus)
T2 sequence (Q96GD4 whole entry): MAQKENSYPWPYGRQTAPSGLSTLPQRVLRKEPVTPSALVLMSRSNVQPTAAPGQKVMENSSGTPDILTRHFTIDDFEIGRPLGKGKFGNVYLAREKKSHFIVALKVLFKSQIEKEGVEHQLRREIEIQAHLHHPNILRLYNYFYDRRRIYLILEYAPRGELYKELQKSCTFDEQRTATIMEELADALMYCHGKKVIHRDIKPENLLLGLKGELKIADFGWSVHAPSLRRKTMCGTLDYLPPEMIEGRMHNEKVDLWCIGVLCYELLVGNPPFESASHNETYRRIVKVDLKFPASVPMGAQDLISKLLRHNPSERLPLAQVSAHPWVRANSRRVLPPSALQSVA
Description: Kinase inhibition assay (ADP-Glo). The assay is classed as biochemical. The following applies: 10 µM ATP.

In a further assay the target is CK1δ/ε. Description: Kinase inhibition assay (ADP-Glo). Format: biochemical, Sus scrofa domesticus. The following applies: 10 µM ATP. Here is the method: SscCK1δ/ε (Sus scrofa domesticus, casein kinase 1δ/ε, affinity purified from porcine brain) was assayed in buffer A, with 0.022 μg/μL of the following peptide: RRKHAAIGSpAYSITA (“Sp” stands for phosphorylated serine) as CK1-specific substrate.

Another assay deals with T3, DYRK1A (Rattus norvegicus, UniProt Q63470).
T3 construct: amino acids 1 to 499 including the kinase domain; made in house; host or cells: bacteria
Description: Kinase inhibition assay (ADP-Glo). The assay is classed as biochemical. The following applies: 10 µM ATP. The method, then: RnDYRK1A (Rattus norvegicus, amino acids 1 to 499 including the kinase domain, recombinant, expressed in bacteria, DNA vector kindly provided by Dr. W. Becker, Aachen, Germany) was assayed in buffer A with 0.033 μg/µL of the following peptide: KKISGRLSPIMTEQ as substrate.

In the next assay the target is T4, CDK5/p25 (Homo sapiens, UniProt Q00535).
T4 construct: made in house; host or cells: bacteria
T4 sequence (Q00535 whole entry): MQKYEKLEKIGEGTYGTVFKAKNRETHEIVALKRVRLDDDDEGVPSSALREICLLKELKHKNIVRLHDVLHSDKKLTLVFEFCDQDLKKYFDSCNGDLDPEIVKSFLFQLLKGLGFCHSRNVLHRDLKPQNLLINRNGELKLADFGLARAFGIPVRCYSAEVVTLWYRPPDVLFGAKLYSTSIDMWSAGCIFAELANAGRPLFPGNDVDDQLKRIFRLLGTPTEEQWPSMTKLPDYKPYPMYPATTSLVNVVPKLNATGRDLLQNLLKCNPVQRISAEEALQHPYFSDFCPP
T4 sequence (Q15078 99-307 partner limits assumed): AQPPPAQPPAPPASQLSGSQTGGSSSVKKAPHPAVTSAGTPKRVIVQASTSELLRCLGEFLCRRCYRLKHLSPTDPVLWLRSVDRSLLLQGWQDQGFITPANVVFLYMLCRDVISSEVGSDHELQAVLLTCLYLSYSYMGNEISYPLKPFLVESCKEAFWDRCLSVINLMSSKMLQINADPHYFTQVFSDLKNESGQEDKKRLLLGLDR
Description: Kinase inhibition assay (ADP-Glo). Format: biochemical. The following applies: 10 µM ATP. The method, then: HsCDK5/p25 (human, recombinant, expressed in bacteria) was assayed in buffer A, with 0.8 µg/µL of histone H1 as substrate.

A further assay addresses T5, CLK1 (Mus musculus, UniProt P22518).
T5 construct: made in house; host or cells: bacteria
Description: Kinase inhibition assay (ADP-Glo). Format: biochemical. The following applies: 10 µM ATP. Here is the method:
MmCLK1 (from Mus musculus, recombinant, expressed in bacteria) was assayed in buffer A with 0.027μg/µL of the following peptide: GRSRSRSRSRSR as substrate.

A further assay concerns the target CDK2/CyclinA (Homo sapiens, UniProt P24941). Description: Kinase inhibition assay (ADP-Glo). Format: biochemical. The settings on record: 10 µM ATP. The method, then: HsCDK2/CyclinA (human, cyclin-dependent kinase-2, kindly provided by Dr. A. Echalier-Glazer, Leicester, UK) was assayed in buffer A with 0.8 µg/µL of histone H1 as substrate.
The next assay concerns the target GSK3 α/β. Description: Kinase inhibition assay (ADP-Glo). The assay is classed as biochemical, Sus scrofa domesticus. The following applies: 10 µM ATP. Here is the method:
SscGSK-3α/β (Sus scrofa domesticus, glycogen synthase kinase-3, affinity purified from porcine brain) was assayed in buffer A with 0.010 µg/µL of GS-1 peptide, a GSK-3-selective substrate ([…]pEDEEE, “Sp” stands for phosphorylated serine).

Assay [1] concerns Peripheral Blood Mononuclear Cells (PBMCs). Description: MTT cytotoxicity in normal cells, 72 h. The settings on record: Homo sapiens, PBMC, 72 h of incubation. Format: cell-based, human. The method, then:
In order to evaluate the cytotoxic potential in normal cells, all the derivatives were tested against Peripheral Blood Mononuclear Cells (PBMCs) and the most promising compounds were again compounds 3c and 4a, which offered more selectivity against the cancer cells.
Mononuclear cells were obtained from the peripheral blood of healthy volunteers by heparin tube collection and isolated by Ficoll-Histopaque gradient centrifugation. After centrifugation, the cells were harvested, washed and resuspended in RPMI 1640 medium supplemented with 20% fetal bovine serum, 2 mM glutamine, 100 U/mL penicillin and 100 μg/mL streptomycin (Gibco™ Life Technologies, Waltham, MA, USA). The phytohemagglutinin mitogen 2% was also added into the culture medium. After that, using the neubauer chamber, the cells were counted and plated in a 96-well plate at a concentration of 10^6 cells/mL and then were maintained for overnight under incubation at 37 °C and 5% CO2 [65].
The evaluation of the cytotoxicity of the compounds was performed by the method of 3-(4,5-dimethyl-2-thiazolyl)-2,5-diphenyl-2H-tetrazolium bromide (MTT) (Sigma Aldrich Co., St. Louis, MO, USA). To perform the assay the cells were seeded in 96-well plates at the following concentrations: HL-60 and K562 (0.3 × 10^6 cells/mL); MOLT-4 and PBMC (10^6 cells/mL); NCI-H292, HT-29, HEp-2 e MCF-7 (10^5 cells/mL). Briefly, the compounds previously dissolved in DMSO (dimethylsulfoxide, Vetec, São Paulo, Brazil), were diluted in medium and added to each well at the desired concentrations. For the calculation of the concentration that inhibits 50% of cell growth (IC50) the compounds were serially diluted to obtain the final concentrations between 0.19–25 μg/mL. Doxorubicin was used as the standard in the concentration range between (0.078–10 μg/mL). After 72 h of contact of the cells with the compounds, it was added to each well 25 μL of MTT solution (5 mg/mL). Plates were left for another 3 h in incubator at 37 °C and at the end of that period the supernatant was aspirated. To perform the reading, 100 μL of DMSO was added in each well for the dissolution of the formazan crystals. The amount of formazan was measured by reading the plate at 560 nm absorbance. The IC50 was calculated from the nonlinear regression in the Prisma 7.0 software (GraphPad, San Diego, CA, USA). Each sample was tested in triplicate in three independent experiments.

For a further assay, the target named is CDK9/CyclinT (Homo sapiens, UniProt P50750). Description: Kinase inhibition assay (ADP-Glo).
Sequence of CDK9/CyclinT (P50750 whole entry): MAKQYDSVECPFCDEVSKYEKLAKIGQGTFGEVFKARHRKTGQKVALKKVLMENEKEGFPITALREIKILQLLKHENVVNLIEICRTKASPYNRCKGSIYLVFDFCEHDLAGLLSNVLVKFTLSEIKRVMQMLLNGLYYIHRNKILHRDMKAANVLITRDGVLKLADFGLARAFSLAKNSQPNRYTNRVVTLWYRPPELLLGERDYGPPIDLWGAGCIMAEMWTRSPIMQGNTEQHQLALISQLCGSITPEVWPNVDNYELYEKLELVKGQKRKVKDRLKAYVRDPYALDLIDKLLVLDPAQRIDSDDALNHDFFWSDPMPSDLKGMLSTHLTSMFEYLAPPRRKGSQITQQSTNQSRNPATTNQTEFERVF
Sequence of CDK9/CyclinT (O60563 whole entry partner): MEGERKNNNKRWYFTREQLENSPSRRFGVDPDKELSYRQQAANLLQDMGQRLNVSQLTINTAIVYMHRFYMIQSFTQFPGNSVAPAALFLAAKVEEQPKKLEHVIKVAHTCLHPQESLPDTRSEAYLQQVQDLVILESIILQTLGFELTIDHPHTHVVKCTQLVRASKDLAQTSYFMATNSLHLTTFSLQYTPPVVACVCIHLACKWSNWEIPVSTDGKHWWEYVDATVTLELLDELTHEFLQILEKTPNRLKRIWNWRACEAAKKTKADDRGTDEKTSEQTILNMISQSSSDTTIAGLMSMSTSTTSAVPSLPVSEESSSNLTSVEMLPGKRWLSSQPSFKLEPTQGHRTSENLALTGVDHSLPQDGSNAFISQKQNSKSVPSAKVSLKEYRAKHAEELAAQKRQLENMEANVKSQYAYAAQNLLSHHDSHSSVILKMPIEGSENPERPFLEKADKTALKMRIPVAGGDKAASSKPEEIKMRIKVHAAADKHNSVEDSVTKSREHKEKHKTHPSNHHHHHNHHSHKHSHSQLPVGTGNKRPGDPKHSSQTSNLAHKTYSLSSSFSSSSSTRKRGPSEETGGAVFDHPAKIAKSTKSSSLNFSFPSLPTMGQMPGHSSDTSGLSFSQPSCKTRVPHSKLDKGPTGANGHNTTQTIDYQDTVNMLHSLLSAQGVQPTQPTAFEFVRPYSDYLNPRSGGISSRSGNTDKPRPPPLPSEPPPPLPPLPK
The target in the next assay is T6, HASPIN (Homo sapiens, UniProt Q8TF76).
T6 construct: kinase domain, amino acids 470 to 798; made in house; host or cells: bacteria
T6 sequence (Q8TF76 470-798): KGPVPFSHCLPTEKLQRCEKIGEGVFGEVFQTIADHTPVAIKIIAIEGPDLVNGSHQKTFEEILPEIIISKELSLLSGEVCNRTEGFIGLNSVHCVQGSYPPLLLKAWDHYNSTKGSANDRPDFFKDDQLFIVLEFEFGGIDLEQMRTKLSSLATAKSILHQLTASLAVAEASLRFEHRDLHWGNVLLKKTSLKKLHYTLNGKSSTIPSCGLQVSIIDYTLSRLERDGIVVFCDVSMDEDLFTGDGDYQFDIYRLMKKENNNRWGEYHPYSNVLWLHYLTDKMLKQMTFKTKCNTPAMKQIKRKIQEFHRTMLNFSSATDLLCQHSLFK
Description: Kinase inhibition assay (ADP-Glo). The assay is classed as biochemical. The settings on record: 10 µM ATP. Here is the method:
HsHASPIN (human, kinase domain, amino acids 470 to 798, recombinant, expressed in bacteria) was assayed in buffer A with 0.007 µg/µL of Histone H3 (1-21) peptide ([…]) as substrate;

T5 sequence (P22518 whole entry): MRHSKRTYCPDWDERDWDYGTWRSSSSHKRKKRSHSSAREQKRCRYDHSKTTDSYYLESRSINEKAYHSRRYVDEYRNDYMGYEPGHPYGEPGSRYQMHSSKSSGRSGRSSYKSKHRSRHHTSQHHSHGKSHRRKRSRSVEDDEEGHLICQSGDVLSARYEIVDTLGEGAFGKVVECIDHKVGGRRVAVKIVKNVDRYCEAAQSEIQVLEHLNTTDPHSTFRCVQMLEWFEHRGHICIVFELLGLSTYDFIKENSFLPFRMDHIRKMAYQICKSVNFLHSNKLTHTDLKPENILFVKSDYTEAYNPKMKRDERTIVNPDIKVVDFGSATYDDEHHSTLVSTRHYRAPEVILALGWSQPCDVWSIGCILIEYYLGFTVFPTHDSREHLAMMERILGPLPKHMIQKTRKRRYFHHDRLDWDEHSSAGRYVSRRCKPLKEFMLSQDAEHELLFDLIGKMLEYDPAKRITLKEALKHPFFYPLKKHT
T1 sequence (P11309 whole entry): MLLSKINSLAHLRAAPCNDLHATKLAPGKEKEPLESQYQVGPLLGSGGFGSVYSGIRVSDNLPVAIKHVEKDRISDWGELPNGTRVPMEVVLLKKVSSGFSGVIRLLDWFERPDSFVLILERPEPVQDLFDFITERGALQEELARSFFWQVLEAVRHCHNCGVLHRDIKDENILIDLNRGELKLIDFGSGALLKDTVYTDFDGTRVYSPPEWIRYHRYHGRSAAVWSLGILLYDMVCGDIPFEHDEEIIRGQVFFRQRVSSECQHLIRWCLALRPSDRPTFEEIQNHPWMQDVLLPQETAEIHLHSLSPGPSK
Description for CDK9/CyclinT: The protein kinases studied were: CDK2/CyclinA, CDK5/p25, CDK9/CyclinT (cyclin-dependent kinases), HASPIN (haploid germ cell-specific nuclear protein kinase), PIM1 (PIM family kinase 1), CLK1 (cdc2-like kinase 1), DYRK1A (dual-specificity tyrosine phosphorylation regulated kinase), CK1δ/ε (casein kinase 1 isoforms), GSK3α/β (glycogen synthase kinase 3) and AURKB (aurora kinase B). Initially, all compounds were first tested at 10 μM. […] Compounds displaying more than 50% inhibition at 10 μM were next tested over a wide range of concentrations (usually 0.01–10 μM), and IC50 values were determined from the dose-response curves (Sigma-Plot).
Kinase activities were assayed in appropriate kinase buffer, with either protein or peptide as substrate in the presence of 10 µM ATP in a final volume of 6 µL using the ADP-Glo^TM assay kit (Promega, Madison, WI, USA, as described in Zegzouti et al. [66]). Controls were performed with appropriate dilutions of dimethylsulfoxide (solvent of the tested compounds).
The buffers used for kinase assays are the following: (A) 10 mM MgCl2, 1 mM EGTA, 1 mM DTT, 25 mM Tris-HCl pH 7.5, 50 µg/mL heparin; (B) 25 mM MOPS, pH 7.2, 12.5 mM -glycerolphosphate, 25 mM MgCl2, 5 mM EGTA, 2 mM EDTA, 0.25 mM DTT.

What is called IC50 is the concentration needed to halve the response being measured. A high value points to weaker potency in that assay. In the case of `NC(=O)N/N=C/c1c(O)ccc2ccccc12` [Compound 3c, 2-Hydroxynaphthaldehyde Semicarbazone], the half-inhibitory concentration (IC50) against PIM1 was 0.52 µM; at AURKB, 5.1 µM; against CK1δ/ε, above 10 µM; at DYRK1A it was 0.073 µM; against CDK5/p25, 0.35 µM; on CLK1, 0.29 µM. In addition, the concentration for half-maximal inhibition (IC50) is 0.53 µM against CDK2/CyclinA; above 10 µM at GSK3 α/β; 82 ± 1.63 µM in assay [1]; 0.86 µM against CDK9/CyclinT; above 10 µM against HASPIN.

`Cc1ccc(C=NNC(N)=O)cc1` [Compound 3g, 4-Methylbenzaldehyde Semicarbazone]: the IC50 on PIM1, at AURKB, at CK1δ/ε, against DYRK1A, against CDK5/p25 and on CLK1 was above 10 µM each time. Besides, the IC50 against CDK2/CyclinA is above 10 µM; against GSK3 α/β, above 10 µM; in assay [1], above 100 µM; on CDK9/CyclinT, above 10 µM; at HASPIN, above 10 µM.

`CCCCN(N=Cc1ccc([N+](=O)[O-])o1)C(N)=O` [Compound 4a, 5-Nitro-2-(N^2-n-butyl)furfuraldehyde Semicarbazone]: the concentration for half-maximal inhibition (IC50) on PIM1 was above 10 µM; against AURKB, above 10 µM; on CK1δ/ε, 0.76 µM; against DYRK1A, above 10 µM; on CDK5/p25 it was above 10 µM; against CLK1, above 10 µM. The IC50 was above 10 µM against CDK2/CyclinA; above 10 µM on GSK3 α/β; 51.2 ± 0.75 µM in [1]; above 10 µM against CDK9/CyclinT; above 10 µM against HASPIN.
